As a reminder, the Ki is a dissociation constant, usually derived from enzyme kinetics or from competition with a known ligand. Read a low Ki as a stronger hold on the target.

This is an account of results in US12110283B2, “Carbonic anhydrase targeting agents and methods of using same” (VisEn Medical, Inc., priority 2011, dated 2024).

Series [1] can be described thus: Biodistribution of i.v. administered compound in HeLa tumor bearing mice. In kind it is in vivo. To be noted: 2 nmoles i.v., 24 hr, excised tissues, reflectance mode. The procedure: Female NU/NU mice 6-8 weeks old (Charles River Laboratory, Wilmington, MA) were injected subcutaneously (s.c.) with HeLa cells (5×10^6) in the first mammary fat pads. Once tumors reached the desired volume (measured with calipers using the formula volume mm^3=(length×width^2)/2), mice were injected i.v. with compound C5 (2 nmoles) or nonbinding control D3. Mice were sacrificed by carbon dioxide asphyxiation 24 hr later and certain tissues removed, rinsed with saline, blotted dry, and the imaged on a VisEn FMT 2500 using the reflectance mode. Regions of interest (ROIs) were drawn around each organ using the FMT Software and the mean fluorescence (reported as counts/energy) determined for each organ and normalized to the mean fluorescence in tumors taken to be 100%.

The subject of series [2] is HeLa tumors. Description: Detection of in vivo induction of hypoxia in mice with HeLa tumors (FRI of excised tumors). To be noted: 2 nmol i.v., tumors excised and imaged by FRI 24 hours after injection. As to the method: Female nu/nu mice at 4-5 weeks old, obtained from (Harlan Laboratory, Indianapolis, IN) were injected subcutaneously (s.c.) with HeLa cells (1.5×10^6 cells/site) in the mammary fat pads. Once tumors reached the desired volume of 600-700 mm^3 (measured with calipers using the formula volume mm^3=length×width^2/2), mice were grouped randomly (n=4-5 mice/group) for with some exposed to controlled hypoxic environmental conditions (8% oxygen) in a chamber with monitored oxygen levels. Control mice with matched tumor volumes were maintained under normal housing conditions. C5, (2 nmol) was injected intravenously to all mice at 24 hours after the initiation of the experiment. Hypoxic mice were placed back into the hypoxic chamber after the injection, and tumors were excised and imaged by fluorescence reflectance imaging (FRI) 24 hours following injection. FIGS. 6A-B show fluorescence images of the excised tumors from mice that were placed in normal air (left) and 8% 02 (right).

Series [3] has as its system HeLa tumors. The series can be described thus: Imaging of tumors in vivo using CA agents (planar reflectance and FMT). Particulars: NU/NU mice, bilateral HeLa tumors, 2 nmoles i.v., 24 hrs post-injection. As to the method: In this experiment, NU/NU mice 6-8 weeks old (Charles River Laboratory, Wilmington, MA) were injected subcutaneously (s.c.) with about 2×10^6 HeLa cells bilaterally in each mammary fat pad. When tumors reached an approximate size of 3×3 mm, mice were injected intravenously (i.v.) with 2 nmoles of carbonic anhydrase agent C5 or nonbinding control agent D3 (5 mice/probe+2 mice/no probe as control) in 100 μL volume via tail vein. Imaging was conducted at 24 hrs post-injection using a Fluorescence Molecular Tomography system (VisEn Medical, Bedford, MA) that is commercially available.

The test system of series [4] is HeLa tumors. The series can be described thus: Effect of acetazolamide treatment on carbonic anhydrase signal in HeLa tumor-bearing mice (FMT). Particulars: for accumulation in tumors as quantified by FMT (FIG. 5B): 24 hours. In kind it is in vivo. As to the method:
HeLa tumor-bearing mice were randomized once their tumors reached the desired volume and injected i.v. with either C5 (2 nmoles). For competition studies, mice were injected with the acetazolamide (10 mg/kg) followed 60 minutes later by compound C5 (2 nmoles). Imaging was performed 24 hours after administration of the agents using the FMT 2500.

The target in series [5] is T1, CA IX (Homo sapiens, UniProt Q16790).
T1 construct: confirming upregulation and expression of CA IX in these cells; endogenous in cells; host or cells: HeLa cells, hypoxic (1% O2) or normoxic
The series can be described thus: Ki by stopped flow CO2 hydration assay, CA IX. In kind it is biochemical. The procedure:
(§1) In this experiment, Ki values were determined by measuring the rate of CO2 hydration of the CA spectrophotometrically by a stopped flow method in the presence of varying concentrations of the CA agents.

Series [6] addresses CA XII (Homo sapiens, UniProt O43570). Description: Ki by stopped flow CO2 hydration assay, CA XII. In kind it is biochemical. Particulars: rate of CO2 hydration, stopped flow method. The procedure:
as §1

For series [7], the target named is CA XIV (Homo sapiens, UniProt Q9ULX7). Description: Ki by stopped flow CO2 hydration assay, CA XIV. In kind it is biochemical. To be noted: rate of CO2 hydration, stopped flow method. As to the method: as §1
Series [8] has as its target CA II (Homo sapiens, UniProt P00918). The series can be described thus: Ki by stopped flow CO2 hydration assay, CA II. In kind it is biochemical. To be noted: rate of CO2 hydration, stopped flow method. As to the method:
as §1

The target in series [9] is T1, CA IX. The series can be described thus: Carbonic anhydrase dependent binding of CA agents to HeLa cells (fluorescence microscopy, flow cytometry). In kind it is cell-based. Particulars: HeLa cells 24 h in air or 1% O2; agents 1 μM, 30 min. As to the method:
Cell binding assays using HeLa cells cultured under […] were performed. Hela cells (28,000 cells/cm^2) were cultured in 6 well culture plates for 24 h under normoxic (air) or hypoxic (1% O2) conditions. Incubation with a fluorescent anti CA IX Ab (R&D systems) was performed in one well as a positive control followed by incubation for 1 h at 37° C. Carbonic anhydrase agents A5 and A3 (1 μM) or nonbinding control agent D3 were added to individual wells followed by incubation for 30 min. Cells were rinsed three times with PBS then scraped with 2 mL, transferred to 5 mL tubes and then spun for 10 min at 1000 rpm to discard the PBS. The cells were then re-suspend the cells in 400 μL PBS and analyzed by fluorescence microscopy and flow cytometry. For fluorescence microscopy, nuclei were co-stained with DAPI. For the competition study, cells were incubated with acetazolamide (Az) (100 μM) for 2 hour before incubation with agents.
(Flow cytometry measures light scatter and fluorescence of single cells or particles in a stream.)

Chain of CA XII (O43570 25-354, species assumed): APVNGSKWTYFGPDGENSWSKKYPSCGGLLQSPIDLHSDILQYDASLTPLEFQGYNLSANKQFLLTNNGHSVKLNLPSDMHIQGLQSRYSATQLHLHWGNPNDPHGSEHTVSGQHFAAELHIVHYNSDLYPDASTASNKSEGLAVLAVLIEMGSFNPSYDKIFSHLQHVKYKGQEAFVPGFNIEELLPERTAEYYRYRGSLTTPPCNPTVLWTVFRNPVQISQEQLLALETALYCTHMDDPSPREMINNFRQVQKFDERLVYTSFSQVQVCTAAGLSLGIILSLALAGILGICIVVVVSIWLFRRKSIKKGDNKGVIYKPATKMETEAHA
Chain of CA XIV (Q9ULX7 16-337, species assumed): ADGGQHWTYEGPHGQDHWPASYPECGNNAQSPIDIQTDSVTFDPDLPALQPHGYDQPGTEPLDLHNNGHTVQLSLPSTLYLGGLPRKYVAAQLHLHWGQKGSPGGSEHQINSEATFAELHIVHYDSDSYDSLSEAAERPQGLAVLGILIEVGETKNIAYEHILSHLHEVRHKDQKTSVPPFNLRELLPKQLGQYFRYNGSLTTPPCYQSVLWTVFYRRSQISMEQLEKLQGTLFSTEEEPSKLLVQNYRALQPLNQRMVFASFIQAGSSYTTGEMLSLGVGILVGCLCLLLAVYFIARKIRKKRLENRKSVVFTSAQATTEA

Take `CC1(C)C(/C=C/C(=C/C=C2/N(CCCS(=O)(=O)O)c3ccc4c(S(=O)(=O)O)cc(S(=O)(=O)O)cc4c3C2(C)C)c2ccc(C(=O)NCCC(=O)Nc3nnc(S(N)(=O)=O)s3)cn2)=[N+](CCCS(=O)(=O)[O-])c2ccc3c(S(=O)(=O)O)cc(S(=O)(=O)O)cc3c21` [Compound C5, 3-(2-((1E,3Z,5E)-5-(1,1-dimethyl-6,8-disulfo-3-(3-sulfopropyl)-1H-benzo[e]indol-2(3H)-ylidene)-3-(5-((3-oxo-3-((5-sulfamoyl-1,3,4-thiadiazol-2-yl)amino)propyl)carbamoyl)pyridin-2-yl)penta-1,3-dien-1-yl)-1,1-dimethyl-6,8-disulfo-1H-benzo[e]indol-3-ium-3-yl)propane-1-sulfonate]: the “tissue fluorescence (biodistribution), normalized to tumors (FIG. 4)” value in series [1] is “very low in most tissues with the high concentrations found in tumors, and lower concentrations accumulated in the kidneys”. For the same molecule, the “uptake in excised tumors, hypoxic atmosphere (8% oxygen) versus normal air (FIGS. 6A-B)” value in series [2] is reported as “significantly greater uptake”. Besides, the “tumor signal by planar reflectance and tomographic imaging” value in series [3] is on record as “tumors can be imaged effectively”. Also, the “accumulation in tumors as quantified by FMT (FIG. 5B)” value amounted to 116 pmol in series [4] (2 nmoles i.v., no acetazolamide) and 39 pmol in series [4] (acetazolamide 10 mg/kg 60 minutes before agent (2 nmoles i.v.)). Also, the “tumor signal in tomographic images after acetazolamide compared to untreated animals (FIG. 5A)” value in series [4] (acetazolamide 10 mg/kg 60 minutes before agent (2 nmoles i.v.), imaging at 24 hours) is listed as “reduced signal”. In addition, the “less tumor signal in acetazolamide treated animals” value in series [4] (acetazolamide 10 mg/kg 60 minutes before agent, versus untreated) is “approximately 66%”.
As to `CC1(C)C(/C=C/C(=C/C=C2/N(CCCS(=O)(=O)O)c3ccc4c(S(=O)(=O)O)cc(S(=O)(=O)O)cc4c3C2(C)C)c2ccc(C(=O)NCCCCCC(=O)NCc3ccccc3)cn2)=[N+](CCCS(=O)(=O)[O-])c2ccc3c(S(=O)(=O)O)cc(S(=O)(=O)O)cc3c21` [Compound D3, 3-(2-((1E,3Z,5E)-3-(5-((6-(benzylamino)-6-oxohexyl)carbamoyl)pyridin-2-yl)-5-(1,1-dimethyl-6,8-disulfo-3-(3-sulfopropyl)-1H-benzo[e]indol-2(3H)-ylidene)penta-1,3-dien-1-yl)-1,1-dimethyl-6,8-disulfo-1H-benzo[e]indol-3-ium-3-yl)propane-1-sulfonate], the inhibition constant Ki is greater than 100 µM in [5] (rate of CO2 hydration, stopped flow method); greater than 100 µM in [6]; greater than 100 µM in series [7]; greater than 100 µM in series [8]. Also, in series [5] (summary in words of Table 5: CA II, CA IX, CA XII, CA XIV), the “specific binding to carbonic anhydrases” value is “no specific binding is detected”. Also, in [1], the “tissue fluorescence (biodistribution), normalized to tumors (FIG. 4)” value was “fluorescence accumulation only in the kidneys”. Further, the “tumor signal by planar reflectance and tomographic imaging” value in series [3] was “little or no tumor signal”. Further, the “binding to hypoxic HeLa cells, flow cytometry (FIG. 3)” value in series [9] is given as “not”. The “binding to hypoxic and normoxic HeLa cells, fluorescence microscopy (FIG. 2)” value in series [9] is “doesn't bind to either normoxic or hypoxic cells”.
